Each structure is given as a SMILES string.

A short description of this assay: Reactive nitrogen species (RNS) after oral dosing of fasted rats, diaminonapthalene derivitization (DAN) assay. Type of assay: in vivo, Sprague-Dawley (SD) rats. As to conditions: fasted SD rats, 40 mpk PO. Here is the method:
The dinitrate compounds of the invention provide enhanced NO release over mononitrate analogs. While mononitrate compounds orally dosed to rats result in reactive nitrite species circulating in plasma with maximal concentration in the 0.5-2.8 μM range, similar dosing of compounds of the present invention result in an unexpectedly large increase in circulating nitrite concentrations. A consideration of stoichiometry leads to an expectation of a doubling of nitrite levels. Compounds of the invention, however, provide a nitrite level increase more than two fold.
Biochemical evidence for the generation of NO in vivo in response to test compound administration was obtained from studies in Sprague-Dawley (SD) rats. Administration of test compound to fasted SD rats (40 mpk, PO) results in the appearance of reactive nitrogen species (RNS), assessed using the diaminonapthalene derivitization (DAN) assay. Compounds 1-2 as numbered and identified in Table 1 below were tested.

With `CCCCc1nc(Cl)c(COC(=O)CCCO[N+](=O)[O-])n1Cc1ccc(-c2ccccc2-c2nnn[nH]2)cc1` [Compound 1, reference compound], the RNS levels runs as follows: (Time 0 h, in µM) 0.7 ± 0.12; (Time 1 h, in µM) 1.1 ± 0.22; (Time 3 h, in µM) 1.1 ± 0.26; (Time 6 h, in µM) 1.1 ± 0.34; (Time 24 h, in µM) 1.7 ± 0.15.
Turning to `CCCCc1nc(Cl)c(COC(=O)CCC[C@@H](CO[N+](=O)[O-])O[N+](=O)[O-])n1Cc1ccc(-c2ccccc2-c2nnn[nH]2)cc1` [Compound 2], where the note is “Compounds 1-2 compared”, the “RNS levels (result in words)” value was “improved RNS levels”. The compound also came in with an RNS levels (Time 0 h) of 0.6 ± 0.11; an RNS levels (Time 1 h) of 9.8 ± 3.8; an RNS levels (Time 3 h) of 3.1 ± 2.48; an RNS levels (Time 6 h) of 2.1 ± 1.65; an RNS levels (Time 24 h, in µM) of 0.5 ± 0.26.

Source of the values: patent publication US7834042B2, “Angiotensin II receptor antagonists” (Merck Sharp & Dohme Corp., priority 2006, dated 2010).
